{"source": "patent US20240165069A1", "about": "“METHODS FOR TREATING DYSGEUSIA AND OTHER LINGERING SYMPTOMS ASSOCIATED WITH SEVERE ACUTE RESPIRATORY SYNDROME CORONAVIRUS 2 INFECTIONADN CORONAVIRUS DISEASE 2019” (Nocendra, Inc., priority 2021, published 2024)", "origin": "cited, not measured here", "tested_on": "oral inflammation", "conditions": "Phase 1 trial"}
{"smiles": "CCCCC[C@@H](O)/C=C/c1ccccc1/C=C/[C@@H](O)[C@@H](O)CCCC(=O)O", "note": "[BLXA4, 9,12-benzo-lipoxin A4]", "values": [{"measurement": "safety profile", "setting": "50 subjects receiving drug, oral topical mouth rinse, versus placebo mouth rinse", "result": "indistinguishable from placebo mouth rinse in safety profile"}, {"measurement": "efficacy (reversal of inflammation)", "setting": "oral topical mouth rinse, not powered for efficacy, trends only", "result": "trends in the efficacy data suggested reversal of inflammation"}, {"measurement": "pro-resolving lipid mediator shift in serum", "setting": "topical BLXA4, serum of the subjects", "result": "elicited a pro-resolving lipid mediator shift in the serum"}]}
